These results are taken from US12384852B2, “Genetically modified NK-92 cells having a safety switch” (ImmunityBio, Inc., priority 2015, dated 2025).

For series [1] the following is noted: clinical studies; cited from earlier work.
The next series has as its system NK-92-TK-CD16-IL-2 cells. Kind of series: Functionality of the TK suicide gene: ganciclovir treatment of mice carrying NK-92-TK-CD16-IL-2 cells. It counts as in vivo, SCID mice. To be noted: ganciclovir 50 μg i.p. every other day, two or three doses; within 24 hours to 72 hours. How it is done: The mice in the first group are treated with two or three doses of ganciclovir (50 μg) intraperitoneally every other day. The mice in the second group are treated with placebo. […] Expansion of NK-92-TK-CD16-IL-2 cells continues to increase over time in mice treated with placebo.

In the case of `CC[C@H](C(=O)N1CCCC[C@H]1C(=O)O[C@H](CCc1ccc(OC)c(OC)c1)c1cccc(OCC(=O)NCCNC(=O)COc2cccc([C@@H](CCc3ccc(OC)c(OC)c3)OC(=O)[C@@H]3CCCCN3C(=O)[C@@H](CC)c3cc(OC)c(OC)c(OC)c3)c2)c1)c1cc(OC)c(OC)c(OC)c1` [AP1903], the tolerability result in series [1] is “well tolerated”.
Regarding `Nc1nc(O)c2ncn(COC(CO)CO)c2n1` [ganciclovir], the “change in NK-92-TK-CD16-IL-2 cells” value in the series with NK-92-TK-CD16-IL-2 cells is “significant reduction”.
